Assay results published in patent publication US20250295798A1, “LIGAND-DRUG CONJUGATE OF EXATECAN ANALOGUE, AND MEDICAL USE THEREOF” (BeiGene Switzerland GmbH, priority 2022, published 2025).
Where a name gives a salt, the structure may show the parent alone.

Columns and labels:
Calu-6 = experiment: Compounds cellular killing in Calu-6; format: cell-based, human; details: Calu-6, 6 days, Cell Titer-Glo
Procedure: (§1) Seeding cells A375 (1E3/well) or Calu-6 (2E3/well) into 96-well plate (Greiner: 655090), 100 ul/well. Incubation at 37° C., 5% CO2, overnight.
(§2) Adding the fresh growth-medium containing the varying concentrations of compounds, 50 ul/well.
(§3) Incubation at 37° C., 5% CO2, 6 days.
(§4) The cell viability detected by Cell Titer-Glo (Promega, G7573). Add 70 µL/well of CellTiter-Glo® Reagent in each well.
(§5) Allow the plates to incubate at room temperature for 10 minutes to stabilize luminescent signal.
(§6) Analyze with Microplate Reader.
(§7) Seeding cells A375 ([…] or Calu-6 (2E3/well) into 96-well plate (Greiner: 655090), 100 ul/well. Incubation at 37° C., […], overnight.

A375 = experiment: Compounds cellular killing in A375; format: cell-based, human; details: A375, 6 days, Cell Titer-Glo
Procedure: as §1, §2, §3, §4, §5, §6, §7

Row | Structure (SMILES) | EC50 (Calu-6; Homo sapiens, Calu-6, […]) | Emax (Calu-6; Homo sapiens, Calu-6, […]) | EC50 (A375; Homo sapiens, A-375, […]) | Emax (A375; Homo sapiens, A-375, […]) | EC50 (Calu-6) | EC50 (A375) | EC50 (Calu-6; Homo sapiens) | EC50 (A375; Homo sapiens, A-375) | Emax (A375; Homo sapiens, A-375) | Emax (%) (Calu-6) | Emax (%) (A375)
1 | CC[C@@]1(O)C(=O)OCc2c1cc1n(c2=O)Cc2c-1nc1cc(Cl)c(C)c3c1c2[C@@H](NC(=O)C(C)(F)CO)CC3 (stereo partly drawn) [Example 2-58, N-((1S,9S)-5-chloro-9-ethyl-9-hydroxy-4-methyl-10,13-dioxo-2,3,9,10,13,15-hexahydro-1H,12H-benzo[de]pyrano[3′,4′:6,7]indolizino[1,2-b]quinolin-1-yl)-2-fluoro-3-hydroxy-2-methylpropanamide] | 0.9 nM | 98.8% | 2.9 nM | 99.9% |  |  |  |  |  |  | 
2 | CC[C@@]1(O)C(=O)OCc2c1cc1n(c2=O)Cc2c-1nc1cc(F)cc3c1c2[C@@H](NC(=O)C(C)(C)CO)CC3 [Example 2-43, N-((1S,9S)-9-ethyl-5-fluoro-9-hydroxy-10,13-dioxo-2,3,9,10,13,15-hexahydro-1H,12H-benzo[de]pyrano[3′,4′:6,7]indolizino[1,2-b]quinolin-1-yl)-3-hydroxy-2,2-dimethylpropanamide] | 1.1 nM | 99.2% | 3.6 nM | 100% |  |  |  |  |  |  | 
3 | CC[C@@]1(O)C(=O)OCc2c1cc1n(c2=O)Cc2c-1nc1cc(F)c(C)c3c1c2C(N1CCC1CO)CC3 (single isomer, unassigned) [Example 2-57] |  | 99.3% |  | 100% | 0.7 nM | 1.9 nM |  |  |  |  | 
4 | CC[C@@]1(O)C(=O)OCc2c1cc1n(c2=O)Cc2c-1nc1cc(O)cc3c1c2C(NC(C)=O)CC3 (stereo partly drawn) [Example 1-18, N-((9S)-9-ethyl-5,9-dihydroxy-10,13-dioxo-2,3,9,10,13,15-hexahydro-1H,12H-benzo[de]pyrano[3′,4′:6,7]indolizino[1,2-b]quinolin-1-yl)acetamide] | 3.1 nM | 99.5% | 5.3 nM | 99.9% |  |  |  |  |  |  | 
5 | CC[C@@]1(O)C(=O)OCc2c1cc1n(c2=O)Cc2c-1nc1cc(F)c(C)c3c1c2C(C(=O)NCCO)CC3 (single isomer, unassigned) [Example 2-52] | 6 nM | 97.3% | 16.1 nM | 98.9% |  |  |  |  |  |  | 
6 | CC[C@@]1(O)C(=O)OCc2c1cc1n(c2=O)Cc2c-1nc1cc(F)c(C)c3c1c2[C@@H](NC(=O)NCCO)CC3 [Example 2-26, 1-((1S,9S)-9-ethyl-5-fluoro-9-hydroxy-4-methyl-10,13-dioxo-2,3,9,10,13,15-hexahydro-1H,12H-benzo[de]pyrano[3′,4′:6,7]indolizino[1,2-b]quinolin-1-yl)-3-(2-hydroxyethyl)urea] |  | 98.4% |  |  |  |  | 5.1 nM | 18.6 nM | 97.7% |  | 
7 | CC[C@@]1(O)C(=O)OCc2c1cc1n(c2=O)Cc2c-1nc1cc(F)c(Cl)c3c1c2[C@@H](NC(=O)C(C)(C)CO)CC3 [Example 2-34, N-((1S,9S)-4-chloro-9-ethyl-5-fluoro-9-hydroxy-10,13-dioxo-2,3,9,10,13,15-hexahydro-1H,12H-benzo[de]pyrano[3′,4′:6,7]indolizino[1,2-b]quinolin-1-yl)-3-hydroxy-2,2-dimethylpropanamide] | 0.5 nM | 99.4% | 0.8 nM | 98.9% |  |  |  |  |  |  | 
8 | CC[C@@]1(O)C(=O)OCc2c1cc1n(c2=O)Cc2c-1nc1cc(F)c(C)c3c1c2[C@@H](NC(=O)[C@@H]1C[C@@H](O)CN1C(C)=O)CC3 [Example 2-17, (2S,4R)-1-acetyl-N-((1S,9S)-9-ethyl-5-fluoro-9-hydroxy-4-methyl-10,13-dioxo-2,3,9,10,13,15-hexahydro-1H,12H-benzo[de]pyrano[3′,4′:6,7]indolizino[1,2-b]quinolin-1-yl)-4-hydroxypyrrolidine-2-carboxamide] | 44.9 nM | 94.6% | 123 nM | 94.9% |  |  |  |  |  |  | 
9 | CC[C@@]1(O)C(=O)OCc2c1cc1n(c2=O)Cc2c-1nc1cc(F)c(C)c3c1c2[C@@H](N1CCCC1CO)CC3 (single isomer, unassigned) [Example 2-50] |  |  |  |  |  | 0.3 nM |  |  |  | 99.2% | 99.5%
10 | CC[C@@]1(O)C(=O)OCc2c1cc1n(c2=O)Cc2c-1nc1cc(F)c(C)c3c1c2C(CCCN)CC3 (stereo partly drawn) [Example 2-42, (9S)-1-(3-aminopropyl)-9-ethyl-5-fluoro-9-hydroxy-4-methyl-1,2,3,9,12,15-hexahydro-10H,13H-benzo[de]pyrano[3′,4′:6,7]indolizino[1,2-b]quinoline-10,13-dione formate] | 2.8 nM | 99.2% | 20.7 nM | 99.6% |  |  |  |  |  |  | 
11 | CC[C@@]1(O)C(=O)OCc2c1cc1n(c2=O)Cc2c-1nc1cc(F)c(C)c3c1c2[C@@H](N1CCC1CO)CC3 (single isomer, unassigned) [Example 2-56] |  |  |  |  | 0.2 nM | 0.9 nM |  |  |  | 99.0% | 100.0%
12 | CC[C@@]1(O)C(=O)OCc2c1cc1n(c2=O)Cc2c-1nc1cc(F)c(C)c3c1c2[C@@H](N(C)CCO)CC3 [Example 2-5, (1S,9S)-9-ethyl-5-fluoro-9-hydroxy-1-((2-hydroxyethyl)(methyl)amino)-4-methyl-1,2,3,9,12,15-hexahydro-10H,13H-benzo[de]pyrano[3′,4′:6,7]indolizino[1,2-b]quinoline-10,13-dione] |  | 98.9% |  |  |  |  | 0.3 nM | 0.9 nM | 98.8% |  | 
13 | CC[C@@]1(O)C(=O)OCc2c1cc1n(c2=O)Cc2c-1nc1cc(O)cc3c1c2[C@@H](N)CC3 [Example 1-24, (1S,9S)-1-amino-9-ethyl-5,9-dihydroxy-1,2,3,9,12,15-hexahydro-10H,13H-benzo[de]pyrano[3′,4′:6,7]indolizino[1,2-b]quinoline-10,13-dione methanesulfonate] | 118 nM | 94.4% | 112 nM | 96% |  |  |  |  |  |  | 
14 | CC[C@@]1(O)C(=O)OCc2c1cc1n(c2=O)Cc2c-1nc1cc(O)cc3c1c2[C@@H](NC(=O)CO)CC3 [Example 2-32, N-((1S,9S)-9-ethyl-5,9-dihydroxy-10,13-dioxo-2,3,9,10,13,15-hexahydro-1H,12H-benzo[de]pyrano[3′,4′:6,7]indolizino[1,2-b]quinolin-1-yl)-2-hydroxyacetamide] | 81.5 nM | 93.7% | 368 nM | 93.7% |  |  |  |  |  |  | 
15 | CC[C@@]1(O)C(=O)OCc2c1cc1n(c2=O)Cc2c-1nc1cc(F)c(C)c3c1c2[C@@H](NC(=O)[C@@H]1C[C@H](O)CN1C(C)=O)CC3 [Example 2-38, (2S,4S)-1-acetyl-N-((1S,9S)-9-ethyl-5-fluoro-9-hydroxy-4-methyl-10,13-dioxo-2,3,9,10,13,15-hexahydro-1H,12H-benzo[de]pyrano[3′,4′:6,7]indolizino[1,2-b]quinolin-1-yl)-4-hydroxypyrrolidine-2-carboxamide] | 12.9 nM | 96.4% | 30.9 nM | 98.7% |  |  |  |  |  |  | 
16 | CC[C@@]1(O)C(=O)OCc2c1cc1n(c2=O)Cc2c-1nc1cc(F)c(C)c3c1c2[C@@H](NC(=O)C[C@H](O)CC#N)CC3 [Example 2-20, (R)-4-cyano-N-((1S,9S)-9-ethyl-5-fluoro-9-hydroxy-4-methyl-10,13-dioxo-2,3,9,10,13,15-hexahydro-1H,12H-benzo[de]pyrano[3′,4′:6,7]indolizino[1,2-b]quinolin-1-yl)-3-hydroxybutanamide] | 5.6 nM | 98.1% | 18.5 nM | 98% |  |  |  |  |  |  | 
17 | CC[C@@]1(O)C(=O)OCc2c1cc1n(c2=O)Cc2c-1nc1cc3c(c4c1c2[C@@H](NC(=O)CO)CC4)OC(F)(F)O3 [Example 2-27, N-((1S,10S)-10-ethyl-5,5-difluoro-10-hydroxy-11,14-dioxo-2,3,10,11,14,16-hexahydro-1H,13H-benzo[de][1,3]dioxolo[4,5-g]pyrano[3′,4′:6,7]indolizino[1,2-b]quinolin-1-yl)-2-hydroxyacetamide] | 3.9 nM | 99.5% | 10.7 nM | 99.5% |  |  |  |  |  |  | 
18 | CC[C@@]1(O)C(=O)OCc2c1cc1n(c2=O)Cc2c-1nc1cc(F)c(O)c3c1c2[C@@H](N)CC3 [Example 1-3, (1S,9S)-1-amino-9-ethyl-5-fluoro-4,9-dihydroxy-1,2,3,9,12,15-hexahydro-10H,13H-benzo[de]pyrano[3′,4′:6,7]indolizino[1,2-b]quinoline-10,13-dione methanesulfonate] | 38.5 nM | 98.8% | 130 nM | 98.4% |  |  |  |  |  |  | 
19 | CC[C@@]1(O)C(=O)OCc2c1cc1n(c2=O)Cc2c-1nc1cc(F)cc3c1c2[C@@H](NC(=O)CO)CC3 [Example 2-31, N-((1S,9S)-9-ethyl-5-fluoro-9-hydroxy-10,13-dioxo-2,3,9,10,13,15-hexahydro-1H,12H-benzo[de]pyrano[3′,4′:6,7]indolizino[1,2-b]quinolin-1-yl)-2-hydroxyacetamide] | 4.2 nM | 98.9% | 6.2 nM | 98.9% |  |  |  |  |  |  | 
20 | CC[C@@]1(O)C(=O)OCc2c1cc1n(c2=O)Cc2c-1nc1cc(F)c(C)c3c1c2[C@@H](NC(=S)NCCO)CC3 [Example 2-25, 1-((1S,9S)-9-ethyl-5-fluoro-9-hydroxy-4-methyl-10,13-dioxo-2,3,9,10,13,15-hexahydro-1H,12H-benzo[de]pyrano[3′,4′:6,7]indolizino[1,2-b]quinolin-1-yl)-3-(2-hydroxyethyl)thiourea] | 0.1 nM | 98.2% | 0.9 nM | 99.9% |  |  |  |  |  |  | 
21 | CC[C@@]1(O)C(=O)OCc2c1cc1n(c2=O)Cc2c-1nc1cc(F)c(C)c3c1c2[C@@H](NC(=O)CO)CC3 [Example 1-A, reference compound] | 1 nM | 98.9% | 2.2 nM | 98.9% |  |  |  |  |  |  | 
